In US6057314A, “Low molecular weight bicyclic thrombin inhibitors” (Biochem Pharma Inc., priority 1997, dated 2000):

Experiments:
human thrombin [1] = target: T1, human thrombin (Homo sapiens, UniProt P00734); experiment: Inhibition of amidolytic activity of human thrombin (Ki, fluorogenic substrate Tos-Gly-Pro-Arg-AMC); format: biochemical; conditions: Table 1, read-out: Ki (inhibitory dissociation constant for human thrombin)
Protocol: In an assay to determine the inhibitory dissociation constant, Ki, for a given compound, a chromogenic or fluorogenic substrate of thrombin would be added to a solution containing a test compound and thrombin; the resulting catalytic activity of the enzyme would be spectrophotometrically determined. This type of assay is well known to those skilled in the art.
Determination of K1 Values for Heterocyclics
The steady-state velocity was then measured for a few minutes. The compounds of this invention were also pre-incubated with thrombin for 20 minutes at room temperature before adding the substrate.

human thrombin [2] = target: T1, human thrombin; experiment: dTT assay (fibrin clotting assay, human thrombin and bovine fibrinogen); format: biochemical; conditions: Table 1; concentration required to double the clotting time; read-out: dTT IC50
Excerpt: The clotting time was plotted against the inhibitor concentrations and the IC50 was estimated as the inhibitor concentration required to double the clotting time relative to the control.

human thrombin [3] = target: T1, human thrombin; experiment: Fibrin clot assay (human plasma, turbidity); format: biochemical; conditions: Table 1, 1 nM thrombin, at 30 minutes
Protocol: The fibrin clot assay was performed essentially as described by Krtenansky et al, FEBS, 1987, 211:10. A serial dilution of the inhibitor was prepared in 50 mM tri HCl buffer (pH 7.8 at 23° C.) containing 0.1 M NaCl and 0.1% (w/v) polyethylene glycol 8000. Human plasma (60 μL, collected in 3.8% sodium citrate, blood/anticoagulate 9:1) was added to microtiter wells (microtiter plate, Falcon) containing 100 μL of various inhibitor dilutions. The solution was mixed after which 50 μL of human thrombin (1 nM final conc.) was added and mixed for 15 seconds. The turbidity of the clot was immediately monitored by microplate autoreader (Dynateck MR 5000) at 405 nm and recorded every 3 min. The maximal turbidity in the absence of inhibitors was reached within 60 min. IC50 values were calculated at 30 minutes as the inhibitor concentration that gave half the optical density of the control.

[4] = tested on: washed platelets from rats; experiment: Platelet aggregation (washed rat platelets, thrombin stimulated); format: cell-based; conditions: Table 1, suspension of washed platelets from rats, human thrombin 0.1 IU/mL, read-out: Antiplatelet activity, Aggregation (IC50)
Protocol: (§1) Platelet Aggregation and Secretion Rat blood was collected into ACD (6/1 v/v) by cardiac puncture. Suspensions of washed platelets were prepared as described by […] et al, (Br. J. Haematol. 1970, 19:7 and Proc. Soc. Exp. Biol. Med. 1971, 136:1021). […] Platelet counts were adjusted to 5000,000/ μL. Platelet aggregation was recorded at 37° C. in an aggregometer (BioData PAP-4) at a stirring speed of 1,100 rpm by measuring the variations of light transmission. […] IC50 values represent the concentration that was necessary to inhibit platelet aggregation or secretion to 50% of the control.

[5] = tested on: washed platelets from rats; experiment: Platelet secretion (14C-serotonin, 5-HT, release from washed rat platelets, thrombin stimulated); format: cell-based; conditions: Table 1, human thrombin 0.1 IU/mL, read-out: Antiplatelet activity, 5-HT Secretion (IC50)
Protocol: as §1, with “μL. To permit measurement of the extent of release of the contents of the dense granules, the platelets were labelled in the first washing solution with ^14 C-serotonin (5-HT) (1 μCi/10 mL of washing fluid) and release of ^14 C-serotonin was determined as described in Holmsen et al, (Enzymology, 1989, 169:206). […] (5 μM final conc.) was added to present the reuptake of released serotonin.” for “μL.”

SMILES	Ki (human thrombin [1]) [µM]	IC50 (human thrombin [2]) [µM]	IC50 (human thrombin [3]) [µM]	IC50 [4] [µM]	IC50 [5] [µM]
N=C(N)NCCC[C@H](NC(=O)[C@@H]1CSC2CC[C@@H](CC3CCCCC3)C(=O)N21)C(=O)N1CCCC(C(N)=O)C1 (stereo partly drawn) [Compound 0040, 6S-cyclohexylmethylhexahydro-5-oxo-5H-thiazolo[3,2-a]pyridine-3R-carboxamido((S)-Argnipecotamide)]	19	207	> 450	> 100	> 100
CC(SCC(=O)C(CCCNC(=N)N)NC(=O)[C@@H]1CSC2CC[C@@H](CC3CCCCC3)C(=O)N21)C(=O)O (stereo partly drawn) [Compound 0070, 6S-cyclohexylmethylhexahydro-5-oxo-5H-thiazolo[3,2-a]pyridine-3R-carboxamido(1-carboxy-2-methyl-3-thiobutylketoarginine)]	4.4	25	78	22	2.1
N=C(N)NCCCC(NC(=O)[C@@H]1CSC2CC[C@@H](CC3CCCCC3)C(=O)N21)C(=O)CSCC(=O)O (stereo partly drawn) [Compound 0065, 6S-cyclohexylmethylhexahydro-5-oxo-5H-thiazolo[3,2-a]pyridine-3R-carboxamido(1-carboxy-3-thiobutylketoarginine)]	32.7	42	200	47.5	52
N=C(N)NCCCC(NC(=O)[C@@H]1CSC2CC[C@@H](CC3CCCCC3)C(=O)N21)C(=O)Cc1ccccc1 (stereo partly drawn) [Compound 0020, 6S-cyclohexymethyl hexahydro-5-oxo-5H-thiazolo[3,2-a]pyridine-3R-carboxamido(benzylketoarginine)]	2.2	22	> 450	18	14.2
N=C(N)NCCC[C@H](NC(=O)[C@@H]1CSC2CC[C@@H](CC3CCCCC3)C(=O)N21)C(=O)N1CCCC[C@@H]1C(=O)O (stereo partly drawn) [Compound 0030, 6S-cyclohexylmethyl hexahydro-5-oxo-5H-thiazolo[3,2-a]pyridine-3R-carboxamido((S)-Arg-(R)-pipecolilic acid)]	8.6	67	320	> 100	> 100

More lines, now with the values ahead:

Ki (human thrombin [1]) [µM]	IC50 (human thrombin [2]) [µM]	IC50 (human thrombin [3]) [µM]	IC50 [4] [µM]	IC50 [5] [µM]	SMILES
34	319	> 450	> 100	> 100	N=C(N)NCCCC(NC(=O)[C@@H]1CSC2CC[C@@H](Cc3ccccc3)C(=O)N21)C1(CCC(N)=O)SCCS1 (stereo partly drawn) [Compound 0035, 6S-benzylhexahydro-5-oxo-5H-thiazolo[3,2-a]pyridine-3R-carboxamido(carboxamidopropylcyclodithioketalarginine)]
4.6	89.5	> 450	21	19	CCCCC(=O)C(CCCNC(=N)N)NC(=O)[C@@H]1CSC2CC[C@@H](Cc3ccccc3)C(=O)N21 (stereo partly drawn) [Compound 0010, 6S-benzylhexahydro-5-oxo-5H-thiazolo[3,2-a]pyridine-3R-carboxamido (butyl ketoarginine)]
53	> 625	> 450	> 100	> 100	COC(=O)CCC1(C(CCCNC(=N)N)NC(=O)[C@@H]2CSC3CC[C@@H](CC4CCCCC4)C(=O)N32)SCCS1 (stereo partly drawn) [Compound 0025, 6S-cyclohexyl methyl hexahydro-5-oxo-5H-thiazolo[3,2-a]pyridine-3R-carboxamido(carbmethoxypropylcyclodithioketalarginine)]
16	162	> 450	> 100	> 100	COC(=O)CCC(=O)C(CCCNC(=N)N)NC(=O)[C@@H]1CSC2CC[C@@H](Cc3ccccc3)C(=O)N21 (stereo partly drawn) [Compound 0015, 6S-benzylhexahydro-5-oxo-5H-thiazolo[3,2-a]pyridine-3R-carboxamido(propylcarbmethoxyketoarginine)]
